Literature values, collected in patent US8815282B1, “Commercial method for production of room temperature-liquid cetyl myristoleate” (priority 2005, dated 2014).

Tested on: arthritis in mice
Conditions: pure CMO, Pharmacological Research 47 (2003) 43-47

CCCC/C=C\CCCCCCCC(=O)OCCCCCCCCCCCCCCCC [CMO, cetyl myristoleate]
incidence and severity of arthritis: significant reduction in the incidence and severity of arthritis
